Assay results from PMC10712727, “Safety, Tolerability, and Pharmacokinetics of Senaparib, a Novel PARP1/2 Inhibitor, in Chinese Patients With Advanced Solid Tumors: A Phase I Trial” (The Oncologist, 2023).
“Also recorded” adds a separate entry of the source.

How the values were obtained:
[1] = system: patients with advanced solid tumors; test: Dose-limiting toxicities, MTD and RP2D determination (modified 3 + 3 dose escalation); assay type: in vivo
Protocol: Dose escalation was conducted using a modified Fibonacci 3 + 3 method (Supplementary Fig. S1).[17] Patients were administered oral senaparib from a planned starting dose of 2 mg once daily (QD), with preliminary dose escalation to 120 mg via nine dose groups, in order of their entry into the study. At a given dose level, each patient received a single dose of senaparib followed by a 7-day washout period. They then entered a continuous dosing period to confirm the safety and PK profile, in which they received senaparib QD from day 1 to day 21 of each 3-week cycle. Progression to the next higher dose required approval from the Data Safety Monitoring Committee (DSMC) upon review of the safety and PK data of the previous dose. […]
DLTs were predefined toxicities (Supplementary Table S2) recorded over the 7 days following the single-dose administration of senaparib and during the first treatment cycle (day 1-day 21) for each dose group in the dose-escalation period only. […] Plasma concentrations of senaparib were determined using high-performance liquid chromatography-tandem mass spectrometry. Tumor response was assessed every 6 weeks per RECIST v1.1,[16] recording objective response rate (ORR), disease control rate (DCR), duration of response (DOR), and progression-free survival (PFS) by dose level for all patients and for those harboring BRCA^mut+ tumors.

[2] = Plasma pharmacokinetics in continuous dosing period, cycle 1 day 15 steady state (HPLC-MS/MS); assay type: in vivo, human; settings: dose range of 2-120 mg
anticancer animal models = system: anticancer animal models; set-up: method as in doi:10.1158/1538-7445.am2022-1399; settings: in vivo studies (anticancer animal models); cited from earlier work

SMILES: O=C(c1cc(Cn2c(=O)[nH]c(=O)c3c(F)cccc32)ccc1F)N1CCN(c2ncccn2)CC1 [Senaparib]
- Dose-limiting toxicities (DLTs) ([1]; DLT observation period, dose escalation, 2-120 mg QD and 50 mg BID): No dose-limiting toxicities were observed; also recorded: No DLTs were observed
- Maximum tolerated dose (MTD) ([1]; doses up to 120 mg QD): not reached
- Dose linearity [2]: Dose linearity was not observed
- Potency relative to the PARP inhibitor olaparib (anticancer animal models): 20 fold
